The source of these data is paper PMC9926234, “Iterative computational design and crystallographic screening identifies potent inhibitors targeting the Nsp3 macrodomain of SARS-CoV-2” (Proceedings of the National Academy of Sciences of the …, 2023).

Molecules are shown by their SMILES. “And” between values parts separate entries of the source, which are not always exact repeats. Identical values can stand only once. Like-named read-outs stand apart in the source and are kept apart here.

The target of data set [1] is T1, SARS-CoV-2 NSP3 Mac1 (Severe acute respiratory syndrome coronavirus 2, UniProt P0DTD1). Set-up: contains a conserved macrodomain enzyme (Mac1); Differential scanning fluorimetry of Mac1, maximum thermal upshift. Particulars: maximum shift over tested concentrations; binder.
Data set [2] concerns the target T1, SARS-CoV-2 NSP3 Mac1. The experiment in a line: biochemical. Set-up: HTRF ADPr-peptide displacement assay with Mac1, dose-response IC50. The conditions noted are these: read-out: IC50 [µM] / 0.5, 1.2, 1.4.
Data set [3] deals with T1, SARS-CoV-2 NSP3 Mac1. Set-up: contains a conserved macrodomain enzyme (Mac1); differential scanning fluorimetry, maximum thermal upshift. Particulars: binder.
Data set [4] deals with P-glycoprotein (human MDR1). Description: in vitro. The conditions noted are these: dog, MDCK-MDR1, pH 7.4.
Description: Permeability of compounds was assessed using canine MDR1 knockout and human MDR1 knockin MDCKII cells (MDR1-MDCKII) (Sigma-Aldrich, MTOX1303) in confluent monolayers expressing P-glycoprotein (P-gp) at Enamine biological services Bienta LTD (Kyiv, Ukraine).
Canine MDR1 knockout, human MDR1 knockin MDCKII cell (MDR1-MDCKII) (Sigma-Aldrich,
MTOX1303) suspension (400 μl) was added to each well of high throughput screening multiwell
insert system plates. Test compounds were prepared as 20 mM DMSO stocks. The test compound
(300 µl) was dissolved in transport buffer (9.5 g/l Hanks’ balanced salt solution and 0.35 g/l NaHCO3
wells whereas 1000 µl of transport buffer was added to transport analysis plate wells in order to
determine apical (A) to basolateral (B) transport. Basolateral to apical transport was measured by
adding 1000 µl of the test compound solution into the transport analysis plate wells whereas 300
µl of buffer was used to fill the filter plate wells.
were taken from the donor and receiver compartments for LC-MS/MS analysis. Samples were
mixed with acetonitrile followed by protein sedimentation by centrifugation at 1000 rpm for 10 min.
HPLC coupled with tandem mass spectroscopy was performed using the Shimadzu Prominence
HPLC system coupled with the API 5000 (PE Sciex) spectrometer. Both the positive and negative
ion modes of the TurboIonSpray ion source were used. The apparent permeability (Papp) was
computed using the equation 1, where VA is the volume of transport buffer in acceptor wel, Area is
the surface area of the insert, Time is the assay time, [drug]acc is the peak area of test compound
in acceptor well, and [drug]initial,d is the initial amount of the test compound in a donor well.
In data set [5] the target is T1, SARS-CoV-2 NSP3 Mac1. It counts as binding.
The next data set deals with T2, TARG1 (Homo sapiens, UniProt Q9Y530).
T2 construct: Targ1_HTRF; HTRF assay; pET22b(+); His6, TEV; 1-153; made in house
T2 sequence (Q9Y530 with tags, fused parts or gaps): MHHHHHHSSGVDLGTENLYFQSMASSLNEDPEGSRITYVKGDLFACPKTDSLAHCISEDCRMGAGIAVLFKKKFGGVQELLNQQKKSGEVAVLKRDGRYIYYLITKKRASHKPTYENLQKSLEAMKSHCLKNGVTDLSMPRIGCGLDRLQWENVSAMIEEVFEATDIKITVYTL
The experiment in a line: adapted HTRF-based peptide displacement assay (off-target). It is filed as binding. For orientation: TR-FRET usually uses a lanthanide donor and a delayed reading to cut background.

Data set [6] deals with T1, SARS-CoV-2 NSP3 Mac1. It is filed as binding. Set-up: contains a conserved macrodomain enzyme (Mac1). Put shortly: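 Differential scanning fluorimetry using 5 µM Fluorescent Yellow dye in place of SYPRO Orange. Compounds run in triplicate at seven two-fold dilutions from 1,000 or 100 μM, with ΔTma taken against a DMSO control in the same plate region. Dose-response significance assessed by Spearman's coefficient between concentration and ΔTma.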

Another data set addresses T3, MacroD2 (Homo sapiens, UniProt A1Z1Q3).
T3 construct: MacroD2_HTRF; HTRF assay; pET22b(+); His6, TEV, Avi; made in house
T3 sequence (A1Z1Q3 with tags, fused parts or gaps): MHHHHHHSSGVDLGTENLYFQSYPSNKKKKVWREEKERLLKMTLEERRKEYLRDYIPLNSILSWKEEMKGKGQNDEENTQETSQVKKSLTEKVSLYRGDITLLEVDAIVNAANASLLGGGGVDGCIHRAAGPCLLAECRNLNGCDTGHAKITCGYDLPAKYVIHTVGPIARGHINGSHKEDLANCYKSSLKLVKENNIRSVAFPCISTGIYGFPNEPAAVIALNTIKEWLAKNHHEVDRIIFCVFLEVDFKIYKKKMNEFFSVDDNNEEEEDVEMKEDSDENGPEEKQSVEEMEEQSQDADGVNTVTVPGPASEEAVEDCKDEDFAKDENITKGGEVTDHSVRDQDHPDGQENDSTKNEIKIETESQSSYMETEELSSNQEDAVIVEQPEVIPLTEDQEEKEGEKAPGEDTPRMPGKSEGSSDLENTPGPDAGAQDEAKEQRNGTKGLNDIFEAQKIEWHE
Description: adapted HTRF-based peptide displacement assay (off-target). It counts as binding.

In data set [7] the target is T1, SARS-CoV-2 NSP3 Mac1. Description: biochemical. It is filed as binding. Particulars: for IC50: read-out: IC50; for Ki: read-out: Ki***.
Data set [8] relates to SARS-CoV-2 NSP3 Mac1. The experiment in a line: Overall hit call (binding in crystallographic soaking or the HTRF-based binding assay). The text has this: Supplement pnas.2212931120.sd01.xlsx, sheet "Compound Summary" | column: HIT*
[9] abbreviates: PanDDA event map, 1 minus background density correction, crystal soaking of Mac1.
Setting [10] is: PanDDA event map, crystal soak, Compound_concentration 100 mM, Echo_dispense_volume 40 nl.
[11] abbreviates: crystal soak, Compound_concentration 100 mM, Echo_dispense_volume 40 nl, PanDDA run (background map) dmso_34, nohits_35 or nohits_62.
Where [12] appears, read: HTRF ADPr-peptide displacement from SARS-CoV-2 Mac1.

As for `O=C1COc2cc(C(=O)NC3c4cccc(O)c4CC3C(=O)O)ccc2N1` (stereo not shown) [Z8539_0014, 8539_0014], the “DSF max dTma” value at SARS-CoV-2 NSP3 Mac1 [1] was 1.83 °C. On SARS-CoV-2 NSP3 Mac1 [2], the IC50 was 27.9 µM.

In the case of `Nc1ncnc2c1ncn2Cc1cccc(C(F)(F)F)c1` [Z0893, ZINC000110510893], the “DSF max dTma” value on SARS-CoV-2 NSP3 Mac1 [3] worked out at 0.5 degC.

For the compound `O=C(NC1c2cccc(O)c2CC1C(=O)O)c1ccc2[nH]c(CO)nc2c1` (stereo not shown) [Z8539_0002], in [4], the Papp A→B (commonly the apparent permeability from the apical to the basolateral side of a cell layer) turned out to be 0.8 ± 0.2 ×10⁻⁶ cm/s. In addition, the Papp B→A (in general, how fast a substance crosses the layer from the basolateral side) in [4] came to 1.4 ± 1 ×10⁻⁶ cm/s. Further, the 1-BDC at SARS-CoV-2 NSP3 Mac1 [5] (PanDDA 1-BDC value of the event, crystal soak, compound concentration 100 mM, per dataset) was found to be 0.26; on SARS-CoV-2 NSP3 Mac1 [5] (PanDDA event map background density correction, crystal soak, compound concentration 100 mM) it was 0.19; at SARS-CoV-2 NSP3 Mac1 [5] (setting [9]), 0.29; at SARS-CoV-2 NSP3 Mac1 [5] (setting [10]), 0.29. The “1-BDC (PanDDA)” value on SARS-CoV-2 NSP3 Mac1 [5] (setting [9]) is reported as 0.19. For the same compound, the “PanDDA hit?” value is recorded as “TRUE” at SARS-CoV-2 NSP3 Mac1 [5] (setting [11]) and “TRUE” on SARS-CoV-2 NSP3 Mac1 [5] (crystal soak, compound concentration 100 mM, per dataset). Besides, the “Modeled?” value is reported as “TRUE” at SARS-CoV-2 NSP3 Mac1 [5] (ligand modeled from this dataset, compound concentration 100 mM, Echo dispense volume 40 or 80 nl) and “TRUE” at SARS-CoV-2 NSP3 Mac1 [5] (ligand modeled in the crystal structure, crystal soak, compound concentration 100 mM). The “HIT*” value at SARS-CoV-2 NSP3 Mac1 [5] (true hit = binding in crystallographic soaking or the HTRF-based binding assay) was “Y”. The “selectivity for viral Mac1 over human macrodomain” value is listed as “selective for viral Mac1” at TARG1 (versus TARG1, in words) and “selective for viral Mac1” on MacroD2 (versus MacroD2, in words). Further, the “Spearman est (compound concentration vs apparent Tm)” value on SARS-CoV-2 NSP3 Mac1 [6] (DSF dose responsiveness, 1 µM nsp3 mac1, adj p given) was 0.74. In addition, the “DSF max dTma” value on SARS-CoV-2 NSP3 Mac1 [6] (maximal thermal upshift) is reported as 5.39 ˚C. Further, the IC50 is 1.3 to 6.7 µM on SARS-CoV-2 NSP3 Mac1 [7] (setting [12]); 1.3 µM and 6.7 µM on SARS-CoV-2 NSP3 Mac1 [7] (HTRF). Moreover, the Ki (usually a dissociation constant, usually derived from enzyme kinetics or from competition with a known ligand) on SARS-CoV-2 NSP3 Mac1 [7] (Ki estimation from HTRF-derived IC50, Cheng-Prusoff, peptide 400nM, Kd 2.68µM) is 1.1 µM and 5.8 µM.

`Fc1ccc2c(c1)[nH]c1ncnc(N3CCOC(c4nnn[nH]4)C3)c12` (stereo not shown) [LL114_0008]: the “1-BDC (PanDDA)” value at SARS-CoV-2 NSP3 Mac1 [5] (setting [9]) is 0.25. At SARS-CoV-2 NSP3 Mac1 [5] (setting [10]), this compound gave a 1-BDC of 0.25. Moreover, at SARS-CoV-2 NSP3 Mac1 [5] (setting [11]), the “PanDDA hit?” value is on record as “TRUE”. Besides, the “Modeled?” value on SARS-CoV-2 NSP3 Mac1 [5] (ligand modeled, crystal soak, Compound_concentration 100 mM, Echo_dispense_volume 40 nl) was “TRUE”. This compound returned a Refined occupancy at SARS-CoV-2 NSP3 Mac1 [5] (ligand occupancy after refinement (phenix.refine), crystal soaking of Mac1) of 50. The “displacement of the ADPr-conjugated peptide (off-target activity)” value at TARG1 (compound at 50 µM) and at MacroD2 (compound at 50 µM) was “showed measurable peptide displacement” in each case. The IC50 on SARS-CoV-2 NSP3 Mac1 [7] (HTRF ADPr-conjugated peptide displacement) came out at 17.2 µM; on SARS-CoV-2 NSP3 Mac1 [7] (setting [12]) it was 17 µM. The Ki on SARS-CoV-2 NSP3 Mac1 [7] turned out to be 15 µM. In the data set on SARS-CoV-2 NSP3 Mac1 [8], the “HIT*” value is “Y”.

With `O=C(c1cn[nH]c(=O)c1)N1CCC(CF)(C(=O)O)C1` (stereo not shown) [R8407, REAL250001448407], the “DSF max dTma” value at SARS-CoV-2 NSP3 Mac1 [3] amounted to 0 degC.

Turning to `CC(CSc1nnc2[nH]cnn12)c1ccccc1` (stereo not shown) [Z3280, ZINC000920153280], at SARS-CoV-2 NSP3 Mac1 [3], the “DSF max dTma” value stood at 0 degC.

In the case of `O=C(Nc1ccc(C(=O)N[C@H]2c3ccccc3CC[C@H]2C(=O)O)cc1)NC1CC1` [Z8539_0030, 8539_0030], the “DSF max dTma” value at SARS-CoV-2 NSP3 Mac1 [1] turned out to be 4.92 °C. Besides, the IC50 at SARS-CoV-2 NSP3 Mac1 [2] is 5.9 µM.

As for `O=C(Nc1ccc(C(=O)NC2c3ccccc3CC2C(=O)O)cc1)NC1CC1` (stereo not shown) [Z8539_0029, 8539_0029], the “DSF max dTma” value on SARS-CoV-2 NSP3 Mac1 [1] turned out to be 3.66 °C. Besides, the IC50 on SARS-CoV-2 NSP3 Mac1 [2] worked out at 4.8 µM.

`Nc1ncnc(N2CCC(Oc3ccncc3)C2)c1Cl` (stereo not shown) [Z9710, ZINC000302059710]: the “DSF max dTma” value on SARS-CoV-2 NSP3 Mac1 [3] is 0 degC.
